Test results from patent publication US12139520B2 (priority 2020, dated 2024).
Bridge positions count the residues as written; N and C are the ends. Square brackets hold non-standard residues; d marks the D form. Peptide text beside a SMILES is read from it. Hyp = O=C(O)[C@@H]1C[C@@H](O)CN1; Cit = NC(=O)NCCC[C@H](N)C(=O)O

Columns and labels:
[1] = Physical stability of peptide analogues (Thioflavin T fibrillation); assay type: physicochemical; settings: maximum ThT signal normalized between hAMY maximum and buffer background; 40° C., shaking, four days; pH 7 per table title
Summary of the method: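 1 h in 50 mM NaOAc pH 4 / 50 mM NaPi pH 7; + ThT 4 μM final; 40 °C, 700 rpm linear shake 5 min pre-read; ex 450, em 480 nm q10 min × 4 d; LOESS smoothing; max signal normalised to hAMY max vs buffer blank.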

[2] = target: hAM1 receptor (Homo sapiens, UniProt O60895+Q16602); experiment: cAMP assay for in vitro receptor activation, hAM1-R; assay type: cell-based; settings: cAMP assay, hAM1 receptor; read-out: hAM1R EC50
hAM1 receptor, sequence (Q16602 23-461): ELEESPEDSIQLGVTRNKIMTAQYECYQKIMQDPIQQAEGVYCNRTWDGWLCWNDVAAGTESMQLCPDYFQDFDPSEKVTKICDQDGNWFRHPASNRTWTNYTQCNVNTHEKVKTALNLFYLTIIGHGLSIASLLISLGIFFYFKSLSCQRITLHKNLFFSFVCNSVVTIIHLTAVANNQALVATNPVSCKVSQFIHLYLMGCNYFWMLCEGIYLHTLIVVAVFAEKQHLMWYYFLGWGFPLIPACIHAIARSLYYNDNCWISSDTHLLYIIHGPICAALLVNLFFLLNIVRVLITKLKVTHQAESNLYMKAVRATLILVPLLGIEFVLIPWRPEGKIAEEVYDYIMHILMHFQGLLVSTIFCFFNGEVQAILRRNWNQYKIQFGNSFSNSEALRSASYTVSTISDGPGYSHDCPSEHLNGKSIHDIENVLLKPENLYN
hAM1 receptor, sequence (O60895 43-175 partner): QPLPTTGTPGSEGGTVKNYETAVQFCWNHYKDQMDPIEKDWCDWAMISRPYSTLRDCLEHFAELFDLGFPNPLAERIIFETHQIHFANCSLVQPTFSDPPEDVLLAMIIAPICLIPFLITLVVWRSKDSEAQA
Summary of the method: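 Monoclonal stable hAM1-overexpressing cells, thawed from frozen stock; 8000 cells/well in DPBS + 0.05% casein + 0.5 mM IBMX; read-out cAMP.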

[3] = target: T1, hAMY3 receptor (Homo sapiens, UniProt O60896+P30988); experiment: cAMP assay for in vitro receptor activation, hAMY3-R; assay type: cell-based; settings: cAMP assay, hAMY3 receptor; read-out: hAMY3R EC50
T1 sequence (P30988 25-474): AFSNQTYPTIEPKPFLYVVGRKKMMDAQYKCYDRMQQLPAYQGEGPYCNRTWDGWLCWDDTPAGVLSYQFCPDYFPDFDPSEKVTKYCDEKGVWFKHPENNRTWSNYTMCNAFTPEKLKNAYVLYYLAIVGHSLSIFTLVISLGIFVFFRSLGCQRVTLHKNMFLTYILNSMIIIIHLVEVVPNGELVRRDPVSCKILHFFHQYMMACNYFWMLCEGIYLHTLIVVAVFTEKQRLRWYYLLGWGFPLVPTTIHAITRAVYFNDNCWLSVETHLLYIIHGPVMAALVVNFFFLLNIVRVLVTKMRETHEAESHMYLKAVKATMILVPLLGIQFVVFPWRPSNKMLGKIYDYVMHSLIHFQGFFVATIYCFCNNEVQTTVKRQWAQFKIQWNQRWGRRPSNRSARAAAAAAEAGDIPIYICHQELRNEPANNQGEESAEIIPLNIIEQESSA
T1 sequence (O60896 24-148 partner): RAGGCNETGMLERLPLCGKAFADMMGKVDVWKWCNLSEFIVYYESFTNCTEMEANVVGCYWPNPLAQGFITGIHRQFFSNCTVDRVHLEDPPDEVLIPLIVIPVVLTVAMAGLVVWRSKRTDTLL
Summary of the method: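 Graded compound concentrations were applied for 30 min at room temperature to stably hAMY3-expressing cells in DPBS, 0.05% casein, 0.5 mM IBMX; cAMP detected by TR-FRET.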

SMILES | Max ThT signal (%) [1] | EC50 [2] | EC50 [3]
CC[C@H](C)[C@H](NC(=O)[C@H](CCC(N)=O)NC(=O)[C@H](Cc1c[nH]cn1)NC(=O)[C@H](C)NC(=O)[C@H](CC(C)C)NC(=O)[C@H](CCCNC(=N)N)NC(=O)[C@H](CCC(N)=O)NC(=O)[C@@H](NC(=O)[C@@H](NC(=O)[C@@H]1CSSC[C@H](NC(=O)CN)C(=O)N[C@@H](CCCNC(=N)N)C(=O)N[C@@H](CCSC)C(=O)NCC(=O)N[C@@H]([C@@H](C)O)C(=O)N1)[C@@H](C)O)C(C)C)C(=O)N[C@@H](Cc1ccc(O)cc1)C(=O)N[C@@H](CCC(N)=O)C(=O)N[C@@H](Cc1ccccc1)C(=O)N[C@H](C(=O)N[C@@H](CC(=O)O)C(=O)N[C@@H](CCCCN)C(=O)N[C@@H](CC(=O)O)C(=O)N[C@@H](CCCCN)C(=O)N[C@@H](CC(=O)O)C(=O)N[C@@H](CC(N)=O)C(=O)N[C@H](C(=O)N[C@@H](C)C(=O)N1CCC[C@H]1C(=O)N[C@@H](CO)C(=O)N[C@@H](CO)C(=O)N[C@@H](CCCCN)C(=O)N[C@H](C(=O)N[C@@H](CO)C(=O)N1CCC[C@H]1C(=O)N[C@@H](CCC(N)=O)C(=O)N[C@H](C(=O)N1C[C@H](O)C[C@H]1C(N)=O)[C@@H](C)O)[C@@H](C)CC)C(C)C)[C@@H](C)O [compound 222] (H-GCRMGTCTVQRLAHQIYQFTDKDKDNVAPSSKISPQT[Hyp]-NH2; disulfide 2-7; N-terminus assumed) | 11.700% | > 5000 nM | 0.184 nM
CC[C@H](C)[C@H](NC(=O)[C@H](CCC(N)=O)NC(=O)[C@H](Cc1c[nH]cn1)NC(=O)[C@H](C)NC(=O)[C@H](CC(C)C)NC(=O)[C@H](CCCNC(N)=O)NC(=O)[C@H](CCC(N)=O)NC(=O)[C@@H](NC(=O)[C@@H](NC(=O)[C@@H]1CSSC[C@H](NC(=O)[C@@H](N)CCCCN)C(=O)N[C@@H](CC(N)=O)C(=O)N[C@@H]([C@@H](C)O)C(=O)N[C@@H](C)C(=O)N[C@@H]([C@@H](C)O)C(=O)N1)[C@@H](C)O)C(C)C)C(=O)N[C@@H](Cc1ccc(O)cc1)C(=O)N[C@@H](CCC(N)=O)C(=O)N[C@@H](Cc1ccccc1)C(=O)N[C@H](C(=O)N[C@@H](CC(=O)O)C(=O)N[C@@H](CCCCN)C(=O)N[C@@H](CC(=O)O)C(=O)N[C@@H](CCCCN)C(=O)N[C@@H](CC(=O)O)C(=O)N[C@@H](CC(N)=O)C(=O)N[C@H](C(=O)N[C@@H](C)C(=O)N1CCC[C@H]1C(=O)N1CCC[C@H]1C(=O)N[C@H](C(=O)N[C@@H](CC(N)=O)C(=O)N[C@H](C(=O)NCC(=O)N[C@@H](CO)C(=O)N[C@@H](CC(N)=O)C(=O)NCC(=O)N1C[C@H](O)C[C@H]1C(N)=O)C(C)C)[C@@H](C)O)C(C)C)[C@@H](C)O [compound 268] (H-KCNTATCTVQ[Cit]LAHQIYQFTDKDKDNVAPPTNVGSNG[Hyp]-NH2; disulfide 2-7; N-terminus assumed) | 8.850% | > 5000 nM | 0.014 nM
CC[C@H](C)[C@H](NC(=O)[C@H](CCC(N)=O)NC(=O)[C@H](Cc1c[nH]cn1)NC(=O)[C@H](C)NC(=O)[C@H](CC(C)C)NC(=O)[C@H](CCCNC(=N)N)NC(=O)[C@H](CCC(N)=O)NC(=O)[C@@H](NC(=O)[C@@H](NC(=O)[C@@H]1CSSC[C@H](NC(=O)CN)C(=O)N[C@@H](CCCNC(=N)N)C(=O)N[C@@H](CCSC)C(=O)NCC(=O)N[C@@H]([C@@H](C)O)C(=O)N1)[C@@H](C)O)C(C)C)C(=O)N[C@@H](Cc1ccc(O)cc1)C(=O)N[C@@H](CCC(N)=O)C(=O)N[C@@H](Cc1ccccc1)C(=O)N[C@H](C(=O)N[C@@H](CC(N)=O)C(=O)N[C@@H](CCCCN)C(=O)N[C@@H](CC(=O)O)C(=O)N[C@@H](CCCCN)C(=O)N[C@@H](CC(=O)O)C(=O)N[C@@H](CC(N)=O)C(=O)N[C@H](C(=O)N[C@@H](C)C(=O)N1CCC[C@H]1C(=O)N[C@@H](CCCNC(=N)N)C(=O)N[C@@H](CO)C(=O)N[C@@H](CCCCN)C(=O)N[C@H](C(=O)N[C@@H](CO)C(=O)N1CCC[C@H]1C(=O)N[C@@H](CCC(N)=O)C(=O)N[C@H](C(=O)N1C[C@H](O)C[C@H]1C(N)=O)[C@@H](C)O)[C@@H](C)CC)C(C)C)[C@@H](C)O [compound 192] (H-GCRMGTCTVQRLAHQIYQFTNKDKDNVAPRSKISPQT[Hyp]-NH2; disulfide 2-7; N-terminus assumed) | 4.100% | > 5000 nM | 0.098 nM

Other lines, results leading:

Max ThT signal (%) [1] | EC50 [2] | EC50 [3] | SMILES
4.250% | > 5000 nM | 0.025 nM | CC[C@H](C)[C@H](NC(=O)[C@H](CCC(N)=O)NC(=O)[C@H](Cc1c[nH]cn1)NC(=O)[C@H](C)NC(=O)[C@H](CC(C)C)NC(=O)[C@H](Cc1c[nH]c2ccccc12)NC(=O)[C@H](CCC(N)=O)NC(=O)[C@@H](NC(=O)[C@@H](NC(=O)[C@@H]1CSSC[C@H](NC(=O)[C@@H](N)CCCCN)C(=O)N[C@@H](CC(N)=O)C(=O)N[C@@H]([C@@H](C)O)C(=O)N[C@@H](C)C(=O)N[C@@H]([C@@H](C)O)C(=O)N1)[C@@H](C)O)C(C)C)C(=O)N[C@@H](C)C(=O)N[C@@H](CCC(N)=O)C(=O)N[C@@H](Cc1ccccc1)C(=O)N[C@H](C(=O)N[C@@H](CC(=O)O)C(=O)N[C@@H](CCCCN)C(=O)N[C@@H](CC(=O)O)C(=O)N[C@@H](CCCCN)C(=O)N[C@@H](CC(=O)O)C(=O)N[C@@H](CC(N)=O)C(=O)N[C@H](C(=O)N[C@@H](C)C(=O)N1CCC[C@H]1C(=O)N1CCC[C@H]1C(=O)N[C@H](C(=O)N[C@@H](CC(N)=O)C(=O)N[C@H](C(=O)NCC(=O)N[C@@H](CO)C(=O)N[C@@H](CC(N)=O)C(=O)NCC(=O)N1C[C@H](O)C[C@H]1C(N)=O)C(C)C)[C@@H](C)O)C(C)C)[C@@H](C)O [compound 309] (H-KCNTATCTVQWLAHQIAQFTDKDKDNVAPPTNVGSNG[Hyp]-NH2; disulfide 2-7; N-terminus assumed)
17.150% | > 5000 nM | 0.012 nM | CC[C@H](C)[C@H](NC(=O)[C@H](CCC(N)=O)NC(=O)[C@H](Cc1c[nH]cn1)NC(=O)[C@H](C)NC(=O)[C@H](CC(C)C)NC(=O)[C@H](Cc1c[nH]c2ccccc12)NC(=O)[C@H](CCC(N)=O)NC(=O)[C@@H](NC(=O)[C@@H](NC(=O)[C@@H]1CSSC[C@H](NC(=O)[C@@H](N)CCCCN)C(=O)N[C@@H](CC(N)=O)C(=O)N[C@@H]([C@@H](C)O)C(=O)N[C@@H](C)C(=O)N[C@@H]([C@@H](C)O)C(=O)N1)[C@@H](C)O)C(C)C)C(=O)N[C@@H](Cc1ccc(O)cc1)C(=O)N[C@@H](CCC(N)=O)C(=O)N[C@@H](Cc1ccccc1)C(=O)N[C@H](C(=O)N[C@@H](CC(=O)O)C(=O)N[C@@H](CCCCN)C(=O)N[C@@H](CC(=O)O)C(=O)N[C@@H](CCCCN)C(=O)N[C@@H](CC(=O)O)C(=O)N[C@@H](CC(N)=O)C(=O)N[C@@H](C)C(=O)N[C@@H](C)C(=O)N1CCC[C@H]1C(=O)N1CCC[C@H]1C(=O)N[C@H](C(=O)N[C@@H](CC(N)=O)C(=O)N[C@H](C(=O)NCC(=O)N[C@@H](CO)C(=O)N[C@@H](CC(N)=O)C(=O)NCC(=O)N1C[C@H](O)C[C@H]1C(N)=O)C(C)C)[C@@H](C)O)[C@@H](C)O [compound 315] (H-KCNTATCTVQWLAHQIYQFTDKDKDNAAPPTNVGSNG[Hyp]-NH2; disulfide 2-7; N-terminus assumed)
